# Experimental data taken from US20170049842A1, “FOOD ADDITIVE FOR PRODUCING FOOD FOR PREVENTING CRANIAL NERVE DISEASE AND/OR IMPROVING BRAIN FUNCTION” (FUJI OIL HOLDINGS INC., priority 2014, published 2017).
# Like-named read-outs stand apart in the source and are kept apart here. Peptide text beside a SMILES is read from it.
# Legend:
# [1] = Permeability coefficient (Papp) across Caco-2 cell monolayers in Ussing Chamber; conditions: Caco-2; for Papp A→B at 60 min, 10 mM: human
# Protocol: (§1) The measurement of permeability coefficient, which was an index of absorbability in the intestinal tract, of ARPs was performed as follows.
# (§2) Caco-2 cells were seeded in Cell culture insert at 4.0×10^5 cells/mL, and cultured for 3 days in an intestinal epithelial differentiation promoting medium. Caco-2 cell monolayers were cut and set to Ussing Chamber. Hanks' Balanced Salt Solution (HBSS) (apical membrane side: pH 6.0, basolateral membrane side: pH 7.4) was added in each Chamber. After 15 minutes preliminary heat retention (37° C., 95% O2/5% CO2 mixture gas), each ARPs aqueous solution (10 mM) was added to apical membrane side. Samples were recovered from the basolateral membrane side every 15 minutes (total 60 minutes). The recovered sample was subjected to ESI-TOF-MS (Electro Spray Ionization-Time of Flight-Mass Spectrometry) analysis to determine permeated peptide amount. Permeability coefficient (Papp) was calculated according to the following formula.
# (§3) C0: concentration of added peptide (mmol/L)
# (§4) dC/dt: Permeated amount of peptide per time (mmol/L·sec)
# (§5) Concentration of peptide, which transitioned to the basolateral membrane side in each time, was calculated based on the area from reference standard. In addition, it was confirmed that they were not degraded to amino acids.
# (§6) Permeated peptide amount per time was calculated and permeability coefficient (Papp) was calculated according to the above formula.
# Caco-2 cell monolayers [2] = assay: as above; conditions: compared with the other ARPs
# Protocol: as §1, §2, §3, §4, §5, §6
# Caco-2 cell monolayers [3] = system: Caco-2 cell monolayers
# Protocol: as §1, §2, §3, §4, §5, §6
# in vitro = conditions: human, Caco-2
# Protocol: as §1, §2, §3, §4, §5, §6
Structure (SMILES),Papp A→B [1],"permeability coefficient / permeation efficiency in mesenteric model cell, in words (Caco-2 cell monolayers [2])",other results
"CC(C)C[C@H](NC(=O)[C@@H](N)Cc1ccc(O)cc1)C(=O)O [B, Tyr-Leu] (H-Tyr-Leu-OH; N-terminus and C-terminus assumed)",–,–,"permeability coefficient / permeation efficiency in mesenteric model cell, in words (Caco-2 cell monolayers [3]): relatively higher permeability coefficient than the other ARPs; Papp A→B at 60 min, 10 mM (in vitro): 0.596 ± 0.198 ×10⁻⁶ cm/s"
"N[C@@H](Cc1ccc(O)cc1)C(=O)N[C@@H](CO)C(=O)O [D, Tyr-Ser] (H-Tyr-Ser-OH; N-terminus and C-terminus assumed)",0.248 ± 0.088 ×10⁻⁶ cm/s,relatively higher permeability coefficient than the other ARPs,–
"N[C@@H](Cc1ccc(O)cc1)C(=O)N1CCC[C@H]1C(=O)O [E, Tyr-Pro] (H-Tyr-Pro-OH; N-terminus and C-terminus assumed)",0.885 ± 0.215 ×10⁻⁶ cm/s,relatively high permeation efficiency,–
"N[C@@H](Cc1ccccc1)C(=O)N[C@@H](Cc1ccc(O)cc1)C(=O)O [G, Phe-Tyr] (H-Phe-Tyr-OH; N-terminus and C-terminus assumed)",–,–,"Papp A→B at 60 min, 10 mM [1]: 0.006 ± 0.0001 ×10⁻⁶ cm/s"
"CC[C@H](C)[C@H](N)C(=O)N[C@@H](Cc1ccc(O)cc1)C(=O)O [H, Ile-Tyr] (H-Ile-Tyr-OH; N-terminus and C-terminus assumed)",2.92 ± 0.265 ×10⁻⁶ cm/s,relatively high permeation efficiency,–
"N=C(N)NCCC[C@H](NC(=O)[C@@H](N)Cc1ccc(O)cc1)C(=O)O [Peptide C, Tyr-Arg]",–,–,"Papp A→B at 60 min, 10 mM [1]: 0.05 ± 0.011 ×10⁻⁶ cm/s"

# Further lines, with some results ahead:
Papp A→B [1],"permeability coefficient / permeation efficiency in mesenteric model cell, in words (Caco-2 cell monolayers [2])",Structure (SMILES),other results
0.72 ± 0.272 ×10⁻⁶ cm/s,relatively high permeation efficiency,"N[C@@H](CO)C(=O)N[C@@H](Cc1ccc(O)cc1)C(=O)O [A, Ser-Tyr] (H-Ser-Tyr-OH; N-terminus and C-terminus assumed)",–
0.044 ± 0.009 ×10⁻⁶ cm/s,–,"NC(=O)C[C@H](NC(=O)[C@@H](N)Cc1ccc(O)cc1)C(=O)O [F, Tyr-Asn] (H-Tyr-Asn-OH; N-terminus and C-terminus assumed)",–
